Results: the supplement of paper PMC3974653
Structures can show the parent of a compound that is named as a salt.

test system: MTT (mouse pheochromocytoma); experiment: IC50 of cell viability (ATP content); settings: (24 or 48 h)
Method in brief: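 The IC50 was fitted with a four-parameter logistic equation to normalised CellTiter-Glo ATP luminescence from MTT mouse pheochromocytoma cells. These cells, in white 1536-well plates, had been treated for 24 or 48 hrs with library compounds at 8 final concentrations between 0.5 nM and 46 µM, and luminescence was read after 15 minutes. Positive-control wells served as 100% and DMSO wells as 0%.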

IC50 of cell viability	SMILES
> 46 µM	Clc1ccc(Nc2nnc(Cc3ccncc3)c3ccccc23)cc1 [VATALANIBUM]
> 46 µM	C[C@H](O)[C@H]1[C@@H]2[C@@H](C)\C(=C(/N2C1=O)C(O)=O)S[C@@H]3CN[C@H](C3)C(=O)N(C)C [Meropenem]
> 46 µM	CC1(C)CCC(C)(C)c2cc(NC(=O)c3ccc(C(=O)O)cc3)ccc21 [TAMIBAROTENE]
> 46 µM	NC(=O)C1(N2CCCCC2)CCN(CCCC(=O)c2ccc(F)cc2)CC1 [PIPAMPERONE HYDROCHLORIDE]
> 46 µM	CCN(CC)CCOC(=O)C(c1ccccc1)C1CCCCC1.Cl (stereo unspecified) [DROFENINE HYDROCHLORIDE]
> 46 µM	CCCCCC[C@@H](CCC)C(=O)O [(R)-2-Propyloctanoic acid (Arundic Acid)]
> 46 µM	CN1CC(O)C2=C/C(=N/NC(N)=O)C(=O)C=C21 (stereo unspecified) [Carbazochrome]
> 46 µM	CN1CCC(OC(=O)C(Oc2ccc(Cl)cc2)Oc2ccc(Cl)cc2)CC1 [Lifibrate]
> 46 µM	CC(=O)c1ccc(OCC(=O)N2CCCCC2)cc1 [Ethanone, 2-(4-acetylphenoxy)-1-(1-piperidinyl)-]
> 46 µM	C[C@]\12CCC(=O)\C=C1CC[C@H]3[C@@H]4CC[C@](O)(C(=O)COC(=O)CCC(O)=O)[C@@]4(C)C[C@H](O)[C@H]23 [Hydrocortisone 21-hemisuccinate sodium salt]
> 46 µM	O=C(O)CCCCC(=O)O [Adipic acid]
> 46 µM	Nc1ncnc2c1ncn2[C@@H]1O[C@H](CO)[C@@H](O)[C@H]1O [ADENOSINE]
> 46 µM	C[C@H](NCCc1ccc(O)cc1)[C@@H](O)c1ccc(O)cc1 [Ritodrine hydrochloride]
> 46 µM	CCOc1ccccc1C(N)=O [2-Ethoxybenzamide (Ethenzamide)]
> 46 µM	CCN1CCN(CC1)C2=CC3=C(C=C2F)C(=O)C(=C/N3C4CC4)\C(O)=O [ENROFLOXACIN]
> 46 µM	CC(C)OC(=O)C(C)(C)Oc1ccc(C(=O)c2ccc(Cl)cc2)cc1 [Fenofibrate]
> 46 µM	Nc1ccc(C(=O)O)cc1 [p-Amino benzoic acid]
> 46 µM	Cl.N[C@@H]1C(O)OC(CO)C(O)C1O (stereo partly specified) [GLUCOSAMINE HYDROCHLORIDE]
> 46 µM	Cl.OC(=O)C/1=C/N(C2=CC=C(F)C=C2)C3=C(C=C(F)C(=C3)N4CCNCC4)C1=O [SARAFLOXACIN HYDROCHLORIDE]
> 46 µM	COCCCOc1cc(C[C@@H](C[C@H](N)[C@@H](O)C[C@H](C(=O)NCC(C)(C)C(N)=O)C(C)C)C(C)C)ccc1OC [Aliskiren]
> 46 µM	NCCN [Ethylenediamine]
> 46 µM	Clc1ccc(Cn2c(CN3CCCC3)nc3ccccc32)cc1 [Clemizole hydrochloride]
> 46 µM	COc1cccc2c1[C@@H]1CN(CCCCn3c(=O)[nH]c4c(sc5ncc(-c6ccccc6)nc54)c3=O)C[C@@H]1CO2 [Fiduxosin hydrochloride]
> 46 µM	CCN1CCc2nc(N)oc2CC1.Cl.Cl [B-HT 933 dihydrochloride]
> 46 µM	O=S([O-])CNc1ccc([S+](=O)([O-])c2ccc(NCS(=O)[O-])cc2)cc1 [Adesulfone sodium]

IC50 of cell viability	SMILES
> 46 µM	CCN(CC)CCCC(C)Nc1cc(/C=C/c2ccccc2Cl)nc2cc(Cl)ccc12 (stereo unspecified) [AMINOQUINOLUM]
> 46 µM	CCC(CCC(C)C1CCC2C3C\C=C/4CC(O)CC[C@@]4(C)C3CC[C@@]12C)C(C)C (stereo partly drawn) [beta-SITOSTEROL]
> 46 µM	NC(=O)OC[C@@H]1[C@H](NC(=O)/C(=N/OCC(=O)[O-])c2csc(N)n2)C(=O)N1S(=O)(=O)[O-] [CARUMONAM SODIUM]
> 46 µM	c1ccc(CCNc2nc(-c3ccccc3)cs2)cc1 [Fanetizole]
> 46 µM	Nc1ncnc2c1ncn2[C@H]1CC[C@@H](CO)O1 [2',3'-DIDEOXYADENOSINE]
> 46 µM	C=CCCCCCCCCC(=O)O [Undecylenic acid]
> 46 µM	Cc1nc(-c2ccc(Cl)cc2)oc1COC(C)(C)C(=O)O [Romazarit]
> 46 µM	Cc1ccnc(N[S+](=O)([O-])c2ccc(N)cc2)n1 [Sulfamerazine]
> 46 µM	CN[C@H](CC(C)C)C(=O)N[C@H]1C(=O)N[C@@H](CC(N)=O)C(=O)N[C@H]2C(=O)N[C@H]3C(=O)N[C@H](C(=O)N[C@H](C(=O)O)c4cc(O)cc(O)c4-c4cc3ccc4O)[C@H](O)c3ccc(c(Cl)c3)Oc3cc2cc(c3O[C@@H]2OC(CO)[C@@H](O)[C@H](O)[C@H]2O[C@H]2C[C@](C)(N)[C@H](O)[C@H](C)O2)Oc2ccc(cc2Cl)[C@H]1O (stereo partly specified) [VANCOMYCIN HYDROCHLORIDE]
> 46 µM	N#CCC(=O)NN [Ciacetacida]
> 46 µM	CC1=C(/C=C/C(C)=C/C=C/C(C)=C/C(=O)O)C(C)(C)CCC1 [TRETINOIN]
> 46 µM	OCCN1CC(O)C(O)C(O)C1CO (stereo unspecified) [MIGLITOL]
> 46 µM	Cc1cc2nc3ccc(N(C)C)cc3[s+]c2cc1N [Toluidine blue]
> 46 µM	CCOc1cc(N)c(Cl)cc1C(=O)NCC1CN(Cc2ccc(F)cc2)CCO1 (stereo unspecified) [MOSAPRIDE CITRATE]
> 46 µM	Nc1ccc(C(=O)Nc2ccccc2N)cc1 [Dinaline]
> 46 µM	O=C(O)c1ccccc1OP(=O)(O)O [FOSFOSAL]
> 46 µM	O=C([O-])P(=O)([O-])[O-].[Na+].[Na+].[Na+] [FOSCARNET SODIUM]
> 46 µM	CCCCCCCCCCCCCC[N+](C)(C)Cc1ccccc1.O.[Cl-] [BENZALKONIUM CHLORIDE]
> 46 µM	CC(C)C(=O)Nc1ccc([N+](=O)[O-])c(C(F)(F)F)c1 [Flutamide]
> 46 µM	CCN(CC)CCOC(=O)c1ccc(N)cc1 [Procaine hydrochloride]
> 46 µM	CN(C)CC/C=C1\c2ccccc2Sc2ccc(Cl)cc21 [Chlorprothixene]
> 46 µM	FC(F)(F)C(F)(F)C(F)(F)C(F)(F)C(F)(F)F [DODECAFLUOROPENTANE]
> 46 µM	CC(C)(CO)C(O)C(=O)NCCCC(=O)[O-] (stereo unspecified) [CALCIUM HOPANTENATE]
> 46 µM	CC(C)(CO)[C@@H](O)C(=O)NCCC(=O)[O-] [D-Pantothenic acid hemicalcium salt]
> 46 µM	O=C1NC2CCCCN2C12CCN(CCCN1c3ccccc3CCc3ccc(Cl)cc31)CC2 (stereo unspecified) [Mosapramine]

SMILES	IC50 of cell viability
Cc1cccc(C)c1NC(=O)CN1CCCC1=O [Nefiracetam]	> 46 µM
CC(C)Oc1cccc(NC(=O)c2ccccc2C(F)(F)F)c1 [Flutolanil]	> 46 µM
CCC(C)C1O[C@]2(C=CC1C)CC1CC(C/C=C(\C)[C@H](OC3CC(OC)C(O[C@H]4CC(OC)[C@@H](O)C(C)O4)C(C)O3)[C@@H](C)/C=C/C=C3\COC4C(O)C(C)=C[C@H](C(=O)O1)[C@@]34O)O2 (stereo partly specified) [AVERMECTIN B1]	> 46 µM
CCCN1CCC[C@@H]2Cc3n[nH]cc3C[C@H]21 [(-)-QUINPIROLE]	> 46 µM
OC(=O)C1=CC=C2[NH]C=C(CCCCN3CC\C(=C/C3)C4=CC=CC=C4)C2=C1 [CARMOXIROLUM]	> 46 µM
C#C[C@]1(O)CC[C@H]2[C@@H]3CCC4=CC(=O)CCC4=C3C=C[C@@]21CC [GESTRINONE]	> 46 µM
CCOC(=O)C1(c2ccccc2)CCCN(C)CC1 (stereo unspecified) [Ethoheptazine hydrochloride]	> 46 µM
COc1ccc(C(=O)N2CCCC2=O)cc1 [ANIRACETAM]	> 46 µM
CN1C2CCC1C(C(=O)O)C(OC(=O)c1ccccc1)C2 (stereo unspecified) [BENZOYLECGONINE]	> 46 µM
COc1cc(CC(C)N)c(OC)cc1Br (racemic) [(±)-2,5-Dimethoxy-4-bromoamphetamine hydrobromide]	> 46 µM
CCN[C@@H](C)Cc1cccc(C(F)(F)F)c1 [(+)-Fenfluramine]	> 46 µM
C[C@]12C=CC(=O)C=C1CC[C@@H]1[C@@H]2CC[C@@]2(C)[C@H]1CC[C@]2(C)O [Metandienona]	> 46 µM
OC[C@@H](O)[C@H]1O[C@@H]2OC(C(Cl)(Cl)Cl)O[C@H]2[C@H]1O (stereo partly specified) [CHLORALOSUM]	> 46 µM
O=C(Nc1ccc(Br)cc1)c1cc(Br)cc(Br)c1O [TRIBROMSALAN]	> 46 µM
C/C=C(\CC)C(=O)NC(N)=O [1-(2-ETHYLCROTONOYL)UREA]	> 46 µM
O=C/C=C/c1ccccc1 [CINNAMALDEHYDE]	> 46 µM
CCC(=O)OC1(c2ccccc2)CCN(C)CC1C (stereo unspecified) [BETAPRODINUM]	> 46 µM
C[C@]12CC[C@H]3[C@@H](CC[C@@]45O[C@@H]4C(=O)C(C#N)C[C@]35C)[C@@H]1CC[C@@H]2O (stereo partly specified) [TRILOSTANE]	> 46 µM
CC1(O)CCC2C3CCC4=CC(=O)CCC4(C)C3(F)C(O)CC21C (stereo unspecified) [Fluoxymesterone]	> 46 µM
C[C@H]1[C@@H]2Cc3ccc(O)cc3[C@]1(C)CCN2CCc1ccccc1 [(+)-Phenazocine]	> 46 µM
CCCC(C)(COC(N)=O)COC(N)=O [Meprobamate]	> 46 µM
